How the values were obtained:
Assay in all cases: relative viability (nuclei count vs DMSO), 5 days (fraction); higher = more cells survive
[1] = compound: CC1(C)CCC(c2ccc(Cl)cc2)=C(CN2CCN(c3ccc(C(=O)NS(=O)(=O)c4ccc(N[C@H](CCN5CCOCC5)CSc5ccccc5)c(S(=O)(=O)C(F)(F)F)c4)cc3)CC2)C1 [Navitoclax]
In short: (§1)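 Viability was defined as treated-well nuclei divided by vehicle-well nuclei, with the median taken over replicate plates. Cells from lung cancer lines sat overnight at 37 °C in 1536-well plates, received five √10-spaced library-drug doses by pinning on vehicle-anchored plates, and grew 5 days without medium change before one-step fixation, permeabilisation and Hoechst staining, 4× imaging and MetaXpress nuclear counts. Only plates with control CV under 25% and at least one doubling were kept.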

[2] = compound: CCCCCCCC[C@H]1[C@@H](C(=C)C(=O)O1)C(=O)O [C-75]
In short: as §1

[3] = compound: Oc1nc(-c2ccc(C(F)(F)F)cc2)nc2c1CSCC2 [XAV939]
In short: as §1

[4] = compound: O=C(O)c1ccc(-c2c[nH]c3ncc(-c4ccccc4)cc23)cc1C1CCCC1
In short: as §1

[5] = compound: NC(=O)Nc1cc(-c2cccc(F)c2)sc1C(=O)N[C@H]1CCCNC1 [AZD7762]
In short: as §1

Row | Cell Line | relative viability ([1]; 0.005 µM) | relative viability ([1]; 0.01581 µM) | relative viability ([1]; 0.05 µM) | relative viability ([1]; 0.1581 µM) | relative viability ([1]; 0.5 µM) | relative viability ([1]; 0.5 µM, anchor plate) | relative viability ([2]; 0.08 µM) | relative viability ([2]; 0.253 µM) | relative viability ([2]; 0.8 µM) | relative viability ([2]; 2.53 µM) | relative viability ([2]; 8 µM) | relative viability ([3]; 0.08 µM) | relative viability ([3]; 0.253 µM) | relative viability ([3]; 0.8 µM) | relative viability ([3]; 2.53 µM) | relative viability ([4]; 0.04 µM) | relative viability ([4]; 0.1265 µM) | relative viability ([4]; 0.4 µM) | relative viability ([4]; 1.265 µM) | relative viability ([5]; 0.01 µM) | relative viability ([5]; 0.03162 µM) | relative viability ([5]; 0.1 µM) | relative viability ([5]; 0.2 µM, anchor plate) | relative viability ([5]; 0.3162 µM) | relative viability ([5]; 1 µM)
1 | A-427 | 1.02 | 0.977 | 0.959 | 1 | 1.03 | 0.968 | 1.05 | 0.938 | 0.948 | 0.847 | 0.82 | 1.12 | 0.936 | 0.933 | 0.897 | 1.03 | 1.11 | 0.998 | 0.888 | 0.988 | 1.02 | 1.03 | 0.784 | 0.852 | 0.419
2 | HOP-62 | 0.966 | 1.06 | 0.968 | 0.926 | 1.03 | 1 | 1.02 | 1.01 | 1.01 | 0.891 | 1.02 | 1.13 | 0.996 | 0.891 | 0.893 | 1.08 | 1.07 | 0.964 | 0.923 | 1.04 | 0.999 | 1.17 | 0.639 | 1.02 | 0.939
3 | A549 | 0.974 | 1.05 | 0.999 | 0.956 | 0.935 | 1.23 | 0.944 | 1.14 | 0.874 | 0.83 | 0.913 | 1.05 | 0.798 | 0.911 | 0.811 | 0.957 | 1.03 | 0.99 | 0.818 | 1 | 0.982 | 0.994 |  | 0.974 | 0.507
4 | NCI-H1993 | 0.925 | 1.23 | 0.913 | 0.947 | 0.949 | 1.04 | 1.09 | 1.07 | 0.888 | 0.855 | 0.903 | 0.841 | 0.693 | 0.782 | 0.827 | 0.979 | 1.02 | 0.946 | 0.877 | 0.96 | 0.984 | 0.957 | 0.828 | 1.11 | 0.819
5 | NCI-H2023 | 0.919 | 1.04 | 0.958 | 0.97 | 0.909 | 0.994 | 1 | 1.13 | 0.864 | 0.535 | 0.852 | 1.02 | 0.827 | 0.817 | 0.755 | 1.07 | 1.06 | 0.994 | 0.75 | 0.965 | 0.841 | 0.491 |  | 0.262 | 0.132
6 | LXF-289 | 0.974 | 0.989 | 0.884 | 0.99 | 0.972 | 0.949 | 0.958 | 0.95 | 0.983 | 0.862 | 1.02 | 1 | 0.94 | 0.998 | 1.03 | 0.969 | 0.967 | 0.876 | 0.703 | 0.963 | 1.02 | 1.05 | 1.1 | 0.979 | 1.07
7 | NCI-H596 | 1.07 | 0.942 | 0.711 | 0.964 | 1.04 | 0.936 | 1.01 | 1.14 | 0.909 | 0.852 | 0.997 | 1.1 | 1.02 | 1.11 | 1.03 | 0.927 | 0.982 | 1.02 | 0.971 | 1.07 | 1.08 | 1.08 | 1.1 | 0.929 | 0.891
8 | SW 1573 | 1.03 | 1.11 | 1.06 | 0.901 | 0.956 | 0.973 | 0.981 | 1.05 | 0.946 | 0.758 | 0.855 | 1.1 | 0.857 | 0.908 | 0.81 | 0.981 | 1.03 | 0.89 | 0.706 | 1.13 | 1.05 | 1.08 |  | 0.96 | 0.607
9 | NCI-H1944 | 0.942 | 1.09 | 0.766 | 0.913 | 0.892 | 1.05 | 0.871 | 0.909 | 0.929 |  | 0.9 | 1.12 | 0.907 | 0.898 | 0.87 | 0.92 | 1.07 | 0.907 | 0.874 | 1 | 1 | 1.1 | 0.566 | 0.967 | 0.605
10 | NCI-H1734 | 1.03 | 1.08 |  | 0.888 | 1.01 | 0.859 | 1.09 | 0.949 | 0.956 | 0.632 | 0.766 | 1.03 | 0.913 | 0.92 | 0.842 | 0.985 | 1.11 | 0.939 | 0.764 | 0.977 | 1.12 | 1.02 | 0.575 | 0.856 | 0.507
11 | NCI-H1563 | 0.973 | 1.04 | 0.9 | 1.04 | 1.28 |  | 1.06 | 1.06 | 0.884 | 0.92 | 1.08 | 0.978 | 0.987 | 0.822 | 0.698 | 1.07 | 1.03 | 0.958 | 1.01 | 1.02 | 1.01 | 0.993 |  | 1.05 | 0.914
12 | NCI-H2405 | 0.984 | 1.11 | 0.996 | 1.03 | 0.93 | 0.845 | 1.01 | 0.737 | 0.948 | 0.872 | 1.07 | 1.03 | 0.978 | 0.966 | 0.993 | 0.998 | 1.13 | 0.977 | 0.741 | 1.02 | 1.11 | 1.02 | 0.763 | 0.953 | 0.585
13 | NCI-H1793 | 0.977 | 1.09 |  | 0.866 | 0.702 | 0.491 | 0.822 | 1.1 | 0.795 | 0.768 | 1.05 | 1.12 | 0.748 | 1.01 | 0.863 | 0.91 | 1.28 | 0.9 | 0.956 | 1.02 | 1.1 | 0.961 | 0.538 | 0.924 | 0.555
14 | NCI-H322M | 1.03 | 1.1 | 0.926 | 0.974 | 1.06 | 1.24 | 0.964 | 1.22 | 0.905 | 0.839 | 0.952 | 1.03 | 0.835 | 0.852 | 0.655 | 1.01 | 1.02 | 0.956 | 0.886 | 0.956 | 1.06 | 0.928 | 0.589 | 0.683 | 0.397

— the supplement of paper PMC10307832
